# Test results from US11690850B2, “Inhibitors of receptor interacting protein kinase I for the treatment of disease” (Board of Regents, The University of Texas System, priority 2019, dated 2023).
# Target: RIPK1 (Homo sapiens (Human), UniProt Q13546)
# Assay: ADP-Glo Kinase Assay
# Type: biochemical
# Settings: 5 nM RIPK1 protein, 50 μM ATP, 6 hr reaction, average value across multiple runs
# Experimental: In order to measure RIPK1 activity the ADP-Glo kinase assay (Promega, Catalog #V7002) was used to measure the conversion of ATP to ADP. This enzymatic assay was performed in a 384-well white, Optiplate (Perkin Elmer, Catalog #6007299) with assay buffer consisting of 50 mM HEPES pH 7.5 (Gibco, Catalog #15630-080), 50 mM NaCl (Teknova, Catalog #S0252), 30 mM MgCl2 (Ambion, Catalog #AM9530G), 1 mM DTT (Santa Cruz Biotechnology, Catalog #sc-29089), 0.05% BSA (Sigma, Catalog #A3059-50G) and 0.02% CHAPS (Sigma, Catalog #C5070-5G). Stock solutions of the test compounds were prepared in 100% DMSO (Sigma, Catalog #D2650) and serially diluted 1:3 using 100% DMSO. Compounds were additionally diluted 1:40 in assay buffer, and 2 μL/well were transferred to the assay plate. 4 μL/well (final concentration of 5 nM) of RIPK1 protein (SignalChem, Catalog #R07-11G-05) diluted in assay buffer and added to the assay plate followed by a 10 minute preincutation at room temperature. 4 μL/well of ATP (Promega, Catalog #V7002) (final concentration of 50 μM) diluted in assay buffer were then added to the assay plate followed by a 6 hr reaction time. Final concentrations of RIPK1 and ATP refer to a 10 μL volume. Luminescence was measured using a BioTek Synergy™ NEO plate reader. IC50 values were calculated using a four-parameter logistic curve fit using Genedata Screener software. Results are shown below in Table 4, where the average value across multiple runs is given.
# Chain of RIPK1 (Q13546 1-327): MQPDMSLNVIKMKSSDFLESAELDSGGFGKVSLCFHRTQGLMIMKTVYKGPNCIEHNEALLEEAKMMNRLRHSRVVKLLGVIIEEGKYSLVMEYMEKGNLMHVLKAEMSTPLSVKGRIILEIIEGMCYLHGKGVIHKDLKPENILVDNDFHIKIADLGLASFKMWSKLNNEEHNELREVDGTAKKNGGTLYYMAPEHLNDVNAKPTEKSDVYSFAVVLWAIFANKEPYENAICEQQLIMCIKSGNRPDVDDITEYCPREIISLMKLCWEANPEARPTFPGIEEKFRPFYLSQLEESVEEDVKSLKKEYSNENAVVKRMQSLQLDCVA
row,Structure (SMILES),IC50
1,"Cc1cc(=O)c(C(=O)Nc2cccc(Cl)c2F)nn1Cc1ccccc1 [Example 2, 1-Benzyl-N-(3-chloro-2-fluorophenyl)-6-methyl-4-oxo-1,4-dihydropyridazine-3-carboxamide]",823 nM
2,"Cc1cc(=O)c(C(=O)NCc2cc(F)cc(F)c2)nn1-c1ccccc1 [Example 3, N-(3,5-difluorobenzyl)-6-methyl-4-oxo-1-phenyl-1,4-dihydropyridazine-3-carboxamide]",10200 nM
3,"Cc1cc(=O)c(C(=O)Nc2cccc(Cl)c2)nn1-c1ccccc1 [Example 4, N-(3-chlorophenyl)-6-methyl-4-oxo-1-phenyl-1,4-dihydropyridazine-3-carboxamide]",80 nM
4,"Cc1cc(=O)c(C(=O)Nc2cc(Cl)cc(C#N)c2)nn1-c1ccccc1 [Example 5, N-(3-chloro-5-cyanophenyl)-6-methyl-4-oxo-1-phenyl-1,4-dihydropyridazine-3-carboxamide]",1780 nM
5,"Cc1cc(=O)c(C(=O)Nc2ccccc2)nn1-c1cccc(Cl)c1F [Example 7, 1-(3-chloro-2-fluorophenyl)-6-methyl-4-oxo-N-phenyl-1,4-dihydropyridazine-3-carboxamide]",1600 nM
6,"Cc1cc(=O)c(C(=O)Nc2cncc(Cl)c2)nn1-c1ccccc1 [Example 10, N-(5-chloropyridin-3-yl)-6-methyl-4-oxo-1-phenyl-1,4-dihydropyridazine-3-carboxamide]",390 nM
7,"Cc1cc(=O)c(C(=O)Nc2ccn3nccc3c2)nn1-c1ccccc1 [Example 11, 6-methyl-4-oxo-1-phenyl-N-(pyrazolo[1,5-a]pyridin-5-yl)-1,4-dihydropyridazine-3-carboxamide]",15400 nM
8,"Cc1cc(=O)c(C(=O)Nc2cc(Cl)c3ncsc3c2)nn1-c1ccccc1 [Example 12, N-(4-chlorobenzo[d]thiazol-6-yl)-6-methyl-4-oxo-1-phenyl-1,4-dihydropyridazine-3-carboxamide]",1180 nM
9,"Cc1cc(=O)c(C(=O)Nc2ccc3nn[nH]c3c2)nn1-c1ccccc1 [Example 13, N-(1H-benzo[d][1,2,3]triazol-6-yl)-6-methyl-4-oxo-1-phenyl-1,4-dihydropyridazine-3-carboxamide]",7920 nM
10,"Cc1nn(C)c(C)c1NC(=O)c1nn(-c2ccccc2)c(C)cc1=O [Example 14, 6-methyl-4-oxo-1-phenyl-N-(1,3,5-trimethyl-1H-pyrazol-4-yl)-1,4-dihydropyridazine-3-carboxamide]",4610 nM
11,"Cc1cc(NC(=O)c2nn(-c3ccccc3)c(C)cc2=O)ncn1 [Example 15, 6-methyl-N-(6-methylpyrimidin-4-yl)-4-oxo-1-phenyl-1,4-dihydropyridazine-3-carboxamide]",13600 nM
12,"Cc1noc(C)c1NC(=O)c1nn(-c2ccccc2)c(C)cc1=O [Example 16, N-(3,5-dimethylisoxazol-4-yl)-6-methyl-4-oxo-1-phenyl-1,4-dihydropyridazine-3-carboxamide]",4400 nM
13,"Cc1cc(=O)c(C(=O)Nc2cc(Cl)c3cn[nH]c3c2)nn1-c1ccccc1 [Example 18, N-(4-chloro-1H-indazol-6-yl)-6-methyl-4-oxo-1-phenyl-1,4-dihydropyridazine-3-carboxamide]",4710 nM
14,"Cc1n[nH]c(C)c1NC(=O)c1nn(-c2ccccc2)c(C)cc1=O [Example 19, N-(3,5-dimethyl-1H-pyrazol-4-yl)-6-methyl-4-oxo-1-phenyl-1,4-dihydropyridazine-3-carboxamide]",12600 nM
15,"Cc1nccc(NC(=O)c2nn(-c3ccccc3)c(C)cc2=O)n1 [Example 20, 6-methyl-N-(2-methylpyrimidin-4-yl)-4-oxo-1-phenyl-1,4-dihydropyridazine-3-carboxamide]",4460 nM
16,"Cc1cc(=O)c(C(=O)Nc2ccc(C#N)s2)nn1-c1ccccc1 [Example 21, N-(5-cyanothiophen-2-yl)-6-methyl-4-oxo-1-phenyl-1,4-dihydropyridazine-3-carboxamide]",636 nM
17,"Cc1cccc(C)c1NC(=O)c1nn(-c2ccccc2)c(C)cc1=O [Example 22, N-(2,6-dimethylphenyl)-6-methyl-4-oxo-1-phenyl-1,4-dihydropyridazine-3-carboxamide]",1500 nM
18,"Cc1cc(=O)c(C(=O)Nc2c3c(nc4ccccc24)CCCC3)nn1-c1ccccc1 [Example 23, 6-methyl-4-oxo-1-phenyl-N-(1,2,3,4-tetrahydroacridin-9-yl)-1,4-dihydropyridazine-3-carboxamide]",1140 nM

# The next lines start with the values.
row,IC50,Structure (SMILES)
1,3870 nM,"Cc1ncnc(C)c1NC(=O)c1nn(-c2ccccc2)c(C)cc1=O [Example 25, N-(4,6-dimethylpyrimidin-5-yl)-6-methyl-4-oxo-1-phenyl-1,4-dihydropyridazine-3-carboxamide]"
2,1460 nM,"Cc1cc(=O)c(C(=O)Nc2c(F)cccc2C(C)C)nn1-c1ccccc1 [Example 27, N-(2-fluoro-6-isopropylphenyl)-6-methyl-4-oxo-1-phenyl-1,4-dihydropyridazine-3-carboxamide]"
3,2680 nM,"Cc1cccc(C(C)(C)C)c1NC(=O)c1nn(-c2ccccc2)c(C)cc1=O [Example 28, N-(2-(tert-butyl)-6-methylphenyl)-6-methyl-4-oxo-1-phenyl-1,4-dihydropyridazine-3-carboxamide]"
4,1140 nM,"Cc1cccc(C(F)(F)F)c1NC(=O)c1nn(-c2ccccc2)c(C)cc1=O [Example 29, 6-methyl-N-(2-methyl-6-(trifluoromethyl)phenyl)-4-oxo-1-phenyl-1,4-dihydropyridazine-3-carboxamide]"
5,15500 nM,"Cc1cc(=O)c(C(=O)Nc2ccccc2C2CC2)nn1-c1ccccc1 [Example 30, N-(2-cyclopropylphenyl)-6-methyl-4-oxo-1-phenyl-1,4-dihydropyridazine-3-carboxamide]"
6,519 nM,"Cc1cnc2ccccc2c1NC(=O)c1nn(-c2ccccc2)c(C)cc1=O [Example 31, 6-methyl-N-(3-methylquinolin-4-yl)-4-oxo-1-phenyl-1,4-dihydropyridazine-3-carboxamide]"
7,3910 nM,"Cc1cc(=O)c(C(=O)Nc2c(C(C)C)ncnc2C(C)C)nn1-c1ccccc1 [Example 34, N-(4,6-diisopropylpyrimidin-5-yl)-6-methyl-4-oxo-1-phenyl-1,4-dihydropyridazine-3-carboxamide]"
8,1780 nM,"COCc1cc(=O)c(C(=O)Nc2cccc(Cl)c2F)nn1-c1ccccc1 [Example 35, N-(3-chloro-2-fluorophenyl)-6-(methoxymethyl)-4-oxo-1-phenyl-1,4-dihydropyridazine-3-carboxamide]"
9,1440 nM,"CN1C(=O)C(NC(=O)c2nn(-c3ccccc3)c(CCl)c(Cl)c2=O)CCc2cc(Cl)ccc21 (centres unmarked) [Example 46, 5-chloro-N-(7-chloro-1-methyl-2-oxo-2,3,4,5-tetrahydro-1H-benzo[b]azepin-3-yl)-6-(chloromethyl)-4-oxo-1-phenyl-1,4-dihydropyridazine-3-carboxamide]"
10,37 nM,"Cc1ccc(-n2nc(C(=O)NC3CCc4ccccc4NC3=O)c(=O)cc2C)cc1F (centres unmarked) [Example 52, 1-(3-fluoro-4-methylphenyl)-6-methyl-4-oxo-N-(2-oxo-2,3,4,5-tetrahydro-1H-benzo[b]azepin-3-yl)-1,4-dihydro-pyridazine-3-carboxamide]"
11,33300 nM,"Cc1cc(=O)c(C(=O)Nc2nc(C(F)(F)F)c(Br)s2)nn1-c1ccccc1 [Example 84, N-(5-bromo-4-(trifluoromethyl)thiazol-2-yl)-6-methyl-4-oxo-1-phenyl-1,4-dihydropyridazine-3-carboxamide]"
